Results reported in patent publication US4683245A, “Laevorotatory antipode of moprolol as an antihypertensive” (SIMES S.p.A. Societa Italiana Medicinali e Sintetici, priority 1979, dated 1987).
Like-named read-outs stand apart in the source and are kept apart here.

How the values were obtained:
[1] = tested on: adrenergic beta-receptors; assay: Median effective Dose (ED50) in the dog; assay type: in vivo
Description: The data given in Table I evidence similar toxicity of the three different compounds.
In this regard the following Table II gives the respective data for the three compounds (±); (-); (+).

[2] = Lethal Dose50 (LD50) in the mouse; assay type: in vivo; settings: mouse, in vivo, in the mouse
Description: (§1) In this regard the following Table I reports the LD50 of the single isomers and of the racemic product.

[3] = tested on: spontaneously beating right atrium preparations; assay: chronotropic effect on spontaneously beating right atria from reserpinized guinea-pigs; parameters: species or system guinea-pig
Description: Experiments were carried out on spontaneously beating right atrium preparations taken from the hearts of guinea-pigs of both sexes, weighing 300 to 400 g.
Twenty hrs before sacrifice the animals were injected intramuscularly with reserpine dissolved in 20% ascorbic acid in 2 doses of 2 mg/kg each at 24 hrs distance. An equal number of animals received the reserpine solvent only and were kept as controls.
The preparations were suspended in 10 ml vessels containing Krebs-Henseleitsolution aerated with […] and maintained at a temperature of 35° C.
The right atria were fixed to the vessel base by one end and connected to a transducer of a semiisometric microdynanometer (Basile) by the other end.
Heart rate was recorded directly from the tracing.
All the preparations were subjected to a reset traction of 0.6-0.8 g and allowed to stabilize for 1 hr before starting experiments.
The substances were placed in the vessel in cumulative concentrations. Each concentration was increased by three times as compared with the previous one and a 10 min. interspace was left between concentrations.
The control preparations were made by replacing in the vessel the only solvent (H2 O) in the same volumes as for the drug solutions. The effect excerted by the drug and the solvent on atrial rate was evaluated as per-cent variation as compared with baseline values. The significance of the differences between treated and control animals was assessed by Dunnett's test.
***In order to be able to compare the effect of combined doses of the
enantiomers with those of equal doses of the single enantiomers racemic
moprolol was used in concentration double with respect to the single

[4] = tested on: adrenergic beta-receptors; assay: inhibition of hemodynamic effects of isoproterenol (beta-receptor stimulation) in anesthetized dogs; assay type: in vivo, dog; settings: isoproterenol 0.25 μg/Kg/minute i.v.; for beta-blocking activity (in words): anesthetized dogs, duodenal administration
Description: In order better to clarify the advantages connected with the use of pharmaceutical compositions according to the present invention, the attached drawings include three diagrams relating to certain experiments conducted in anesthetized dogs. These diagrams concern the inhibition by recemic moprolol, it laevorotatory optical isomer and its dextro-rotatory optical isomer, of certain homodynamic effects due to stimulation of the adrenergic beta-receptors following on intravenous infusion of isoproterenol at a dose of 0.25 μg/Kg/minute.
The curves therein reported refer to the means of the results of three tests for each substance.

mouse = assay: Lethal Dose50 (LD50) in the mouse; assay type: in vivo
Description: as §1

[5] = Cavia porcellus, read-out: Chronotropic effect (% variation)
[6] = reserpinized guinea-pig right atrium
[7] = listed as laevorotatory moprolol

COc1ccccc1OCC(O)CNC(C)C (racemic) [Moprolol (±), 1-(o-methoxy-phenoxy)-3-isopropyl-amino-propane-2-ol]
Median effective Dose (ED50) [1]: 0.150 mg/kg weight animal
LD50 [2]: 712 mg/kg
cardiac action (in words) [3]: cardiac depressant action
activation at 0.01 µM ([3]; Cavia porcellus, column 1 × 10^-8, racemate used in double concentration vs single enantiomers, read-out: Chronotropic effect (% variation)): 0%

Cl.NCCc1ccc(O)cc1 [Tyramine HCl]
activation at 0.1 µM [3, 5]: 0%
activation at 0.3 µM [3, 5]: 0%
activation at 1 µM [3, 5]: 0%
activation at 3 µM [3, 5]: 0%
activation at 10 µM [3, 5]: -1 ± 1%
activation at 30 µM [3, 5]: -3%
activation at 100 µM [3, 5]: -3%
effect on atrial rate (in words) [3, 6]: devoid of positive chronotropic effect

CC(C)NCC(O)COc1cccc2ccccc12 (single isomer, unassigned) [Moprolol 1-propanolol]
atr. block (preparations blocked / total) ([3]; 1 × 10^-4 M): 4/4
Chronotropic effect (% variation) ([3]; 1 × 10^-4 M, vs baseline, mean ± S.E.): atr. block
activation at 10 µM ([3]; Cavia porcellus, 1 × 10^-5 M, vs baseline, mean ± S.E., read-out: Chronotropic effect (% variation)): -21.5%
activation at 1 µM ([3]; Cavia porcellus, 1 × 10^-6 M, vs baseline, mean ± S.E., read-out: Chronotropic effect (% variation)): -5.7%
activation at 0.1 µM ([3]; Cavia porcellus, 1 × 10^-7 M, vs baseline, mean ± S.E., read-out: Chronotropic effect (% variation)): -2%
activation at 0.01 µM ([3]; Cavia porcellus, 1 × 10^-8 M, vs baseline, mean ± S.E., read-out: Chronotropic effect (% variation)): -0.5%
activation at 30 µM ([3]; Cavia porcellus, 3 × 10^-5 M, vs baseline, mean ± S.E., read-out: Chronotropic effect (% variation)): -37%
activation at 3 µM ([3]; Cavia porcellus, 3 × 10^-6 M, vs baseline, mean ± S.E., read-out: Chronotropic effect (% variation)): -11.2%
activation at 0.3 µM ([3]; Cavia porcellus, 3 × 10^-7 M, vs baseline, mean ± S.E., read-out: Chronotropic effect (% variation)): -3.5%
activation at 0.03 µM ([3]; Cavia porcellus, 3 × 10^-8 M, vs baseline, mean ± S.E., read-out: Chronotropic effect (% variation)): -0.75%
minimal effective concentration ([3]; Cavia porcellus, reserpinized guinea-pig right atrium, read-out: concentration from which depressant effect on atrial rate starts): ≥ 1 µM
effect on atrial rate (in words) ([3]; reserpinized guinea-pig right atrium, listed as Laevorotatory isomer of propanolol): no stimulant effect but a depressant effect
effect on atrial rate (in words) ([3]; reserpinized guinea-pig right atrium, listed as laevorotatory isomer of propanolol): more marked than that evoked by laevorotatory isomer, dextro-rotatory isomer and racemic moprolol

COc1ccccc1OCC(O)CNC(C)C (single isomer, unassigned) [Moprolol (-)]
Median effective Dose (ED50) [1]: 0.0781 mg/kg weight animal
activity relative to the racemic form (times more active) ([1]; effective dose): 2 times
Median effective Dose (ED50) [1, 7]: 0.0781 mg/kg weight animal
LD50 [2]: 605 mg/kg
significance (P) of correlation coefficient of dose-dependent inhibition ([4]; 0.25, 0.0625 and 0.125 mg/kg): < 0.01
beta-blocking activity (in words) ([4]; listed as laevoratatory isomer of moprolol): exactly double that of racemic moprolol
beta-blocking activity (in words) [4, 7]: particularly evident for the laevorotatory form in a dose-dependent manner
cardiac action (in words) [3]: cardiac stimulant action
Chronotropic effect (% variation) ([3]; 1 × 10^-4 M, vs baseline, mean ± S.E., listed as 1-moprolol): -10.8%
Chronotropic effect (% variation) ([3]; 1 × 10^-5 M, vs baseline, mean ± S.E., listed as 1-moprolol): +4%
Chronotropic effect (% variation) ([3]; 1 × 10^-6 M, vs baseline, mean ± S.E., listed as 1-moprolol): +8.8%
Chronotropic effect (% variation) ([3]; 1 × 10^-7 M, vs baseline, mean ± S.E., listed as 1-moprolol): +10.4%
Chronotropic effect (% variation) ([3]; 1 × 10^-8 M, vs baseline, mean ± S.E., listed as 1-moprolol): +8.2%
Chronotropic effect (% variation) ([3]; 3 × 10^-5 M, vs baseline, mean ± S.E., listed as 1-moprolol): +0.2%
Chronotropic effect (% variation) ([3]; 3 × 10^-6 M, vs baseline, mean ± S.E., listed as 1-moprolol): +7.8%
Chronotropic effect (% variation) ([3]; 3 × 10^-7 M, vs baseline, mean ± S.E., listed as 1-moprolol): +10.4%
Chronotropic effect (% variation) ([3]; 3 × 10^-8 M, vs baseline, mean ± S.E., listed as 1-moprolol): +11.4%
concentration range of stimulant effect on atrial rate [3, 6]: 10 to 1000 nM
effect on atrial rate (in words) ([3]; reserpinized guinea-pig right atrium, listed as Laevorotatory isomer of moprolol): causes a stimulant effect on atrial rate

COc1ccccc1OCC(O)CNC(C)C (single isomer, unassigned) [Moprolol (+)]
Median effective Dose (ED50) [1]: nil
activity at effective dose (in words) [1]: without any activity whatsoever
toxicity (in words) (mouse; LD50, mouse): same toxicity as the laevorotatory isomer and the racemic form
Lethal Dose50 (LD50) (mouse; in the mouse): 720 mg/kg weight animal
beta-blocking activity (in words) ([4]; listed as dextro-rotatory isomer): practically nil
beta-blocking activity (in words) ([4]; listed as dextrorotatory optical isomer): almost complete lack of beta-blocking activity
Chronotropic effect (% variation) ([3]; 1 × 10^-4 M, vs baseline, mean ± S.E., listed as d-moprolol): -37.5%
Chronotropic effect (% variation) ([3]; 1 × 10^-5 M, vs baseline, mean ± S.E., listed as d-moprolol): -7.25%
Chronotropic effect (% variation) ([3]; 1 × 10^-6 M, vs baseline, mean ± S.E., listed as d-moprolol): -2%
Chronotropic effect (% variation) ([3]; 1 × 10^-7 M, vs baseline, mean ± S.E., listed as d-moprolol): -2.7%
Chronotropic effect (% variation) ([3]; 1 × 10^-8 M, vs baseline, mean ± S.E., listed as d-moprolol): -1.25%
Chronotropic effect (% variation) ([3]; 3 × 10^-5 M, vs baseline, mean ± S.E., listed as d-moprolol): -14.7%
Chronotropic effect (% variation) ([3]; 3 × 10^-6 M, vs baseline, mean ± S.E., listed as d-moprolol): -6%
Chronotropic effect (% variation) ([3]; 3 × 10^-7 M, vs baseline, mean ± S.E., listed as d-moprolol): -2.7%
Chronotropic effect (% variation) ([3]; 3 × 10^-8 M, vs baseline, mean ± S.E., listed as d-moprolol): -4%
effect on atrial rate (in words) ([3]; reserpinized guinea-pig right atrium, listed as Dextro-rotatory isomer of moprolol): no stimulant effect in a range of concentrations which have proved to be active for laevorotatory isomer of moprolol. On the contrary, they give rise to a depressant effect
